The results in this text go back to patent publication US20240342318A1, “CONJUGATES COMPRISING COVALENT BINDERS FOR TARGETING INTRACELLULAR PROTEINS” (RayzeBio, Inc., priority 2021, published 2024).

Bounds are passed on as bounds.

The target of one assay is T1, EGFR (L858R, T790M) (Homo sapiens, UniProt P00533, L858R/T790M).
T1 construct: The EGFR constructs span amino acids R669 to V1011 of the EGFR protein; T7 phage display fusion (kinase-tagged T7 phage) or DNA tag for qPCR; made in house; host or cells: E. coli (BL21-derived) infected with T7 phage for most assays; remaining kinases in HEK-293
T1 sequence (P00533 669-1011 T790M/L858R): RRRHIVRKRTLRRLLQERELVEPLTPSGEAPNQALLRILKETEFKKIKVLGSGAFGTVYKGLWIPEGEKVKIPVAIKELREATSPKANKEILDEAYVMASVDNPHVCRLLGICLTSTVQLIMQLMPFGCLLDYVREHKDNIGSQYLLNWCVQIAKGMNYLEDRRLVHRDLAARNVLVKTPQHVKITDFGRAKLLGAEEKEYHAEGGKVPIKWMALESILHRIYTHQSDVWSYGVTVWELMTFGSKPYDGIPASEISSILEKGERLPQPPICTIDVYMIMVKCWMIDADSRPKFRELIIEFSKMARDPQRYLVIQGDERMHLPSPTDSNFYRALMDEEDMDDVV
The assay can be described thus: In vitro kinase binding assay (phage/DNA-tagged kinase, affinity beads, qPCR), mutant EGFR. As to the method: (§1) For most assays, kinase-tagged T7 phage strains were prepared in an E. coli host derived from the BL21 strain. For the EGFR assays, wild-type EGFR, or mutant EGFR (T790M, L858R) were utilized. The EGFR constructs span amino acids R669 to V1011 of the EGFR protein. E. coli were grown to log-phase and infected with T7 phage and incubated with shaking at 32° C. until lysis. The lysates were centrifuged and filtered to remove cell debris. The remaining kinases were produced in HEK-293 cells and subsequently tagged with DNA for qPCR detection. Streptavidin-coated magnetic beads were treated with biotinylated small molecule ligands for 30 minutes at room temperature to generate affinity resins for kinase assays. The liganded beads were blocked with excess biotin and washed with blocking buffer (SeaBlock (Pierce), 1% BSA, 0.05% Tween 20, 1 mM DTT) to remove unbound ligand and to reduce non-specific binding. Binding reactions were assembled by combining kinases, liganded affinity beads, and test compounds in 1× binding buffer (20% SeaBlock, 0.17×PBS, 0.05% Tween 20, 6 mM DTT). Test compounds were prepared as 111× stocks in 100% DMSO. Kds were determined using an 11-point 3-fold compound dilution series with three DMSO control points. All compounds for Kd measurements are distributed by acoustic transfer (non-contact dispensing) in 100% DMSO. The compounds were then diluted directly into the assays such that the final concentration of DMSO was 0.9%. All reactions performed in polypropylene 384-well plate. Each was a final volume of 0.02 ml. The assay plates were incubated at room temperature with shaking for 1 hour and the affinity beads were washed with wash buffer (lx PBS, 0.05% Tween 20). The beads were then re-suspended in elution buffer (lx PBS, 0.05% Tween 20, 0.5 μM nonbiotinylated affinity ligand) and incubated at room temperature with shaking for 30 minutes. The kinase concentration in the eluates was measured by qPCR.

A further assay concerns the target T2, EGFR (WT) (Homo sapiens, UniProt P00533).
T2 construct: The EGFR constructs span amino acids R669 to V1011 of the EGFR protein; T7 phage display fusion (kinase-tagged T7 phage) or DNA tag for qPCR; made in house; host or cells: E. coli (BL21-derived) infected with T7 phage for most assays; remaining kinases in HEK-293
The assay can be described thus: In vitro kinase binding assay (phage/DNA-tagged kinase, affinity beads, qPCR), wild-type EGFR. As to the method: as §1
A general note: Real-time PCR tracks product formation cycle by cycle.

T2 sequence (P00533 669-1011): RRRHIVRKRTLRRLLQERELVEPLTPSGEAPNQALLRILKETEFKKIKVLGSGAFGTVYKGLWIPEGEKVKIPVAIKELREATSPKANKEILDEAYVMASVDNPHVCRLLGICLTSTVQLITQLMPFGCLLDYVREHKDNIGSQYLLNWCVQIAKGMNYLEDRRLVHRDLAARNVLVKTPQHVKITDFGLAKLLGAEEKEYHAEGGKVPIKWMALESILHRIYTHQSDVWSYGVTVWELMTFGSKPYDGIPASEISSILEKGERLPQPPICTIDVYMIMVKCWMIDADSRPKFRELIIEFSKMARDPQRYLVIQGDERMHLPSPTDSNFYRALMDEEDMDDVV

Usually Kd stands for the free concentration of one partner at which half of the binding sites on the other are occupied at equilibrium, for simple one-to-one binding. Read a low Kd as a tighter complex. With `C=CC(=O)N1C[C@H](COc2nc(Nc3cnn(CCCCCNC(=O)CN4CCN5CCN6CCN(CC4)CC(=O)[O][Lu]([O]C(=O)C5)[O]C(=O)C6)c3)nc3[nH]cc(Cl)c23)[C@@H](OC)C1` [Compound 007-Lu, N-[5-[4-[[5-chloro-4-[[(3R,4R)-4-methoxy-1-prop-2-enoyl-pyrrolidin-3-yl]methoxy]-7H-pyrrolo [2,3-d]pyrimidin-2-yl]amino]pyrazol-1-yl]pentyl]-2-(3,16,19-trioxo-2,17,18-trioxa-5,8,11,14-tetraza-1λ3-lutetatricyclo[9.6.3.25,14]docosan-8-yl)acetamide], the Kd on EGFR (L858R, T790M) was below 1 nM; at EGFR (WT) it was 100 to 1000 nM. The “Binding Affinity ratio of WT/DM” value on EGFR (L858R, T790M) (ratio of Kd EGFR (WT) to Kd EGFR (L858R, T790M)) was “C (100 < C ≤ 1000)”.
